ChEMBL document CHEMBL3785005, “Novel triazole hybrids of myrrhanone C, a natural polypodane triterpene: Synthesis, cytotoxic activity and cell based studies” (Eur J Med Chem, 2016)

Columns and labels:
Type in all cases: functional, cell-based
[1] = system: HeLa; assay: Cytotoxicity against human HeLa cells assessed as cell viability after 48 hrs by MTT assay
[2] = system: MCF7; assay: Cytotoxicity against human MCF7 cells assessed as cell viability after 48 hrs by MTT assay; conditions: MCF7, 48 h
[3] = system: A549; assay: Cytotoxicity against human A549 cells assessed as cell viability after 48 hrs by MTT assay; conditions: A549, 48 h
[4] = Cytotoxicity against human DU145 cells assessed as cell viability after 48 hrs by MTT assay; conditions: DU-145, 48 h
[5] = system: HepG2; assay: Cytotoxicity against human HepG2 cells assessed as cell viability after 48 hrs by MTT assay; conditions: HepG2, 48 h

Row | Structure (SMILES) | IC50 [1] [µM] | IC50 [2] [µM] | IC50 [3] [µM] | IC50 [4] [µM] | IC50 [5] [µM]
1 | CC(C)=CCC/C(C)=C/CC/C(C)=C/CC[C@@H]1[C@@]2(C)C/C(=C\c3ccc(OCc4cn(-c5ccc(Cl)cc5)nn4)cc3)C(=O)C(C)(C)[C@@H]2CC[C@@]1(C)O | 50.7 | 72.4 | 83.2 | 79.4 | 123
2 | CC(C)=CCC/C(C)=C/CC/C(C)=C/CC[C@@H]1[C@@]2(C)C/C(=C\c3ccc(OCc4cn(-c5cccc(O)c5)nn4)cc3)C(=O)C(C)(C)[C@@H]2CC[C@@]1(C)O | 158 | 45.5 | 110 | 40.6 | 26.9
3 | COc1cccc2c1C(=O)c1c(O)c3c(c(O)c1C2=O)C[C@@](O)(C(=O)CO)C[C@@H]3O[C@H]1C[C@H](N)[C@H](O)[C@H](C)O1 [DOXORUBICIN] | 2.57 |  | 2.81 | 1.41 | 3.01
4 | CC(C)=CCC/C(C)=C/CC/C(C)=C/CC[C@@H]1[C@@]2(C)CC/C(=N\OCc3cn(-c4cccc(C(F)(F)F)c4)nn3)C(C)(C)[C@@H]2CC[C@@]1(C)O | 12.5 | 21.4 | 12.9 | 11.8 | 22.7
5 | CC(C)=CCC/C(C)=C/CC/C(C)=C/CC[C@@H]1[C@@]2(C)C/C(=C\c3ccc(OCc4cn(-c5ccncc5)nn4)cc3)C(=O)C(C)(C)[C@@H]2CC[C@@]1(C)O | 77.6 | 37.5 | 34 | 25.7 | 105
6 | CC(C)=CCC/C(C)=C/CC/C(C)=C/CC[C@@H]1[C@@]2(C)CC/C(=N\OCc3cn(-c4ccc(F)c(F)c4F)nn3)C(C)(C)[C@@H]2CC[C@@]1(C)O | 26.2 | 32.2 | 26.9 | 30.4 | 37.7
7 | CC(C)=CCC/C(C)=C/CC/C(C)=C/CC[C@@H]1[C@@]2(C)CCC(=O)C(C)(C)[C@@H]2CC[C@@]1(C)O | 18.3 | 16.2 | 12 | 13.2 | 26.6
8 | CC(C)=CCC/C(C)=C/CC/C(C)=C/CC[C@@H]1[C@@]2(C)C/C(=C\c3ccc(OCc4cn(-c5ccc(F)cc5)nn4)cc3)C(=O)C(C)(C)[C@@H]2CC[C@@]1(C)O | 126 | 42 | 55.2 | 33.6 | 35.9
9 | CC(C)=CCC/C(C)=C/CC/C(C)=C/CC[C@@H]1[C@@]2(C)C/C(=C\c3ccc(OCc4cn(-c5cccc(C(F)(F)F)c5)nn4)cc3)C(=O)C(C)(C)[C@@H]2CC[C@@]1(C)O | 17.3 | 13.8 | 23.2 | 9.33 | 27.6
10 | CC(C)=CCC/C(C)=C/CC/C(C)=C/CC[C@@H]1[C@@]2(C)CC/C(=N\OCc3cn(-c4cccc(Br)c4)nn3)C(C)(C)[C@@H]2CC[C@@]1(C)O | 15.7 | 24.8 | 11.7 | 14.6 | 39.8
11 | CC(C)=CCC/C(C)=C/CC/C(C)=C/CC[C@@H]1[C@@]2(C)C/C(=C\c3ccc(OCc4cn(-c5ccccc5C#N)nn4)cc3)C(=O)C(C)(C)[C@@H]2CC[C@@]1(C)O | 100 | 29.9 | 61.6 | 25.1 | 63.1
12 | COc1cc(OC)c(-n2cc(COc3ccc(/C=C4\C[C@]5(C)[C@@H](CC/C=C(\C)CC/C=C(\C)CCC=C(C)C)[C@](C)(O)CC[C@H]5C(C)(C)C4=O)cc3)nn2)c(OC)c1 | 17.5 | 13.5 | 16.1 | 12 | 57.5
13 | COc1cccc(-n2cc(CO/N=C3\CC[C@]4(C)[C@@H](CC/C=C(\C)CC/C=C(\C)CCC=C(C)C)[C@](C)(O)CC[C@H]4C3(C)C)nn2)c1 | 22.9 | 25.4 | 21.7 | 30.5 | 51.3
14 | CC(C)=CCC/C(C)=C/CC/C(C)=C/CC[C@@H]1[C@@]2(C)CC/C(=N\OCc3cn(-c4c(Cl)cc([N+](=O)[O-])cc4Cl)nn3)C(C)(C)[C@@H]2CC[C@@]1(C)O | 23 | 16.6 | 11.2 | 16.4 | 34.9
